Columns and labels:
[1] = biological target: T1, hRIPK1 (aa 1-375) fusion protein (Homo sapiens, UniProt Q13546); assay: ADP-Glo kinase assay: catalytic activity of RIPK1 (autophosphorylation, conversion of ATP to ADP); assay type: biochemical
T1 construct: hRIPK1 (aa 1-375) fusion protein
T1 sequence (Q13546 1-375): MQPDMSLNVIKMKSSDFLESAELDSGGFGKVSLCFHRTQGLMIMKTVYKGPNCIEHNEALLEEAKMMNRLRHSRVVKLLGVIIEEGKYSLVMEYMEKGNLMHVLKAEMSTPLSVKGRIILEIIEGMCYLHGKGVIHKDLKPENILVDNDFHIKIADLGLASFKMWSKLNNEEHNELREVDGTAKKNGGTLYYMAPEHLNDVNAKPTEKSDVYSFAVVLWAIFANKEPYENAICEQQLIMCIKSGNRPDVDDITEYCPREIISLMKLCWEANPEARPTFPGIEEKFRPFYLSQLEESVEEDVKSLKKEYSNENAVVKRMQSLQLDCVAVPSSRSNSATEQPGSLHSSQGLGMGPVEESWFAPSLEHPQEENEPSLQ
Procedure: The catalytic activity of RIPK1 was measured by monitoring the conversion of Adenosine triphosphate (ATP) to Adenosine diphosphate (ADP) due to autophosphorylation using an ADP-Glo kinase kit (Promega, catalog no. V9104).
In detail, 2 μl recombinantly produced hRIPK1 (aa 1-375) fusion protein (end concentration 3.6 μg/ml) and 2 μl compound (end concentration 33300-1.69 nM; DMSO end concentration 1%) were incubated for 30 minutes at room temperature and then 2 μl ATP (ADP Glo kit, end concentration 50 μM) were added. After another 240 minutes incubation at room temperature, 5 μl Promega ADP-Glo reagent I was added to quench the reaction and deplete unconsumed ATP. After an incubation period of 30 minutes, 10 μl Promega ADP-Glo detection reagent II was added resulting in conversion of ADP to ATP, which generates a light-reaction between luciferase and luciferin. Luminescence was quantified after 30 minutes with a Pherastar FS (BMG LABTECH, Ortenberg).
The adjustment was obtained by nonlinear regression using the Levenberg Marquardt algorithm.

U937 cells = assay: Cellular assay in U937 cells: activity of RIPK1 inhibitors on TNFα/zVAD.fmk-induced cell death (necroptosis), CellTiter 96 AQueous (MTS) readout; assay type: cell-based; settings: Homo sapiens, U-937
Excerpt: Upon TNF-Receptor I ligation, Ser/Thr kinase RIPK1 is recruited to a transient receptor complex 1. Upon modification of RIPK1 which promotes activation of RIPK1, complex IIb can form, that involves recruitment of RIPK3 and MLKL (mixed lineage-kinase domain-like protein) which then translocates from the cytosol to the plasma membrane to execute cell death (Cai, Z. et al, Nat. Cell Biol. (2014) 16:55-65).
Cell death was quantified in 96 well plates by determination of the amount of live cell using a CellTiter 96 AQueous reagent (Promega), a calorimetric method to measure the number of live cells by reducing tetrazolium compound [3-(4,5-dimethylthiazol-2-yl)-5-(3-carboxymethoxyphenyl)-2-(4-sulfophenyl)-2H-tetrazolium, inner salt; MTS] into formazan. Absorbance of formazan was read at 490 nm. The inhibitory activity of the test compound was quantified in a concentration response curve (CRC) experiment.
Compounds were obtained as 10 mM stock solutions and were diluted 1 to 10 volumes with DMSO to yield a 1 mM solution. From this solution 2 μl were diluted with 998 μl growth medium. 100 μl of 2 μM compound solution was further diluted sequentially with a dilution factor of 2.5 by adding 150 μl growth medium. A total of 10 concentrations were tested ranging from 10 μM to 0.26 nM or from 1 μM to 0.07 nM.
U937 cells were cultured in RPMI1640 Glutamax and 10% heat inactivated FBS. 50 μl cell suspension containing 1×10^6 cells/ml supplemented with 50 μM zVAD.fmk (Benzyloxycarbonyl-Val-Ala-Asp (OMe) fluoromethylketone) and 100 ng/ml recombinant human TNF[…] were dispensed in each well of a 96-well plate. 50 μl of compound dilutions (described in Cellular assay in U937 cells) were added and the cell suspension incubated overnight (18 to 24 hrs) at 37° C., 5% CO2 in a humidified atmosphere (95% rH). High (no compound) and low control (no TNF[…], zVAD.fmk) were tested with 7 replicates; all compound concentrations were tested in duplicates on each experimental plate.
CellTiter 96 Aqueous reagent was mixed (100 μl PMS (phenazine methosulfate) solution/2 ml MTS (3-(4,5-[…])-5-(3-carboxymethoxyphenyl)-2-(4-sulfophenyl)-2H-tetrazolium, inner salt) solution) and 20 μl were added per well. After 4 hrs incubation at 37° C. (5% CO2 95% rH) optical density was measured at 490 nm on a microplate reader (Tecan Infinite M1000).
The % inhibition is expressed as percentage of the maximal inhibition value obtained in the absence of TNFα/zVAD.fmc.

Compound | IC50 [1] [nM] | IC50 (U937 cells) [nM]
N#Cc1cc(F)cc([C@@H]2CCON2C(=O)[C@H]2CC[C@H](Cn3ncc4ccc(C#N)cc43)CC2)c1 [compound 28, trans-1-((4-((S)-3-(3-cyano-5-fluorophenyl)isoxazolidine-2-carbonyl)cyclohexyl)methyl)-1H-indazole-6-carbonitrile] | 19 | 3
N#Cc1ccc2cn(C[C@H]3CC[C@H](C(=O)N4OCC[C@H]4c4cc(F)cc(F)c4)CC3)nc2c1 [compound 31, trans-2-((4-((S)-3-(3,5-difluorophenyl)isoxazolidine-2-carbonyl)cyclohexyl)methyl)-2H-indazole-6-carbonitrile] | 24 | 19
N#Cc1cc(F)c2cnn(C[C@H]3CC[C@H](C(=O)N4OCC[C@H]4c4cc(F)cc(F)c4)CC3)c2c1 [compound 33, trans-1-((4-((S)-3-(3,5-difluorophenyl)isoxazolidine-2-carbonyl)cyclohexyl)methyl)-4-fluoro-1H-indazole-6-carbonitrile] | 19 | 2
N#Cc1cc(F)cc([C@@H]2CCON2C(=O)[C@H]2CC[C@H](Cn3cc4c(F)cc(C#N)cc4n3)CC2)c1 [compound 34, trans-2-((4-((S)-3-(3-cyano-5-fluorophenyl)isoxazolidine-2-carbonyl)cyclohexyl)methyl)-4-fluoro-2H-indazole-6-carbonitrile] | 37 | 69
N#Cc1cc(F)cc([C@@H]2CCON2C(=O)[C@H]2CC[C@H](Cn3cnc4c(F)cc(C#N)cc43)CC2)c1 [compound 36, trans-1-((4-((S)-3-(3-cyano-5-fluorophenyl)isoxazolidine-2-carbonyl)cyclohexyl)methyl)-4-fluoro-1H-benzo[d]imidazole-6-carbonitrile] | 23 | 20
N#Cc1cc(F)c2ncn(C[C@H]3CC[C@H](C(=O)N4OCC[C@H]4c4cc(F)cc(F)c4)CC3)c2c1 [compound 37, trans-1-((4-((S)-3-(3,5-difluorophenyl)isoxazolidine-2-carbonyl)cyclohexyl)methyl)-4-fluoro-1H-benzo[d]imidazole-6-carbonitrile] | 17 | 5
Cc1cc([C@@H]2CCON2C(=O)[C@H]2CC[C@H](Cn3cnc4c(F)cc(C#N)cc43)CC2)co1 [compound 38, trans-4-fluoro-1-((4-((S)-3-(5-methylfuran-3-yl)isoxazolidine-2-carbonyl)cyclohexyl)methyl)-1H-benzo[d]imidazole-6-carbonitrile] | 32 | 30
Cc1cc([C@@H]2CCON2C(=O)[C@H]2CC[C@H](Cn3cc4ccc(C#N)cc4n3)CC2)co1 [compound 41, trans-2-((4-((S)-3-(5-methylfuran-3-yl)isoxazolidine-2-carbonyl)cyclohexyl)methyl)-2H-indazole-6-carbonitrile] | 30 | 91
Cc1cc([C@@H]2CCON2C(=O)[C@H]2CC[C@H](Cn3ncc4ccc(C#N)cc43)CC2)co1 [compound 43, trans-1-((4-((S)-3-(5-methylfuran-3-yl)isoxazolidine-2-carbonyl)cyclohexyl)methyl)-1H-indazole-6-carbonitrile] | 18 | 1

Further lines, with some results ahead:

IC50 [1] [nM] | Compound | IC50 (U937 cells) [nM]
12 | N#Cc1ccc2cnn(C[C@H]3CC[C@H](C(=O)N4OCC[C@H]4c4cc(F)cc(F)c4)CC3)c2c1 [compound 29, trans-1-((4-((S)-3-(3,5-difluorophenyl)isoxazolidine-2-carbonyl)cyclohexyl)methyl)-1H-indazole-6-carbonitrile] | 1
39 | N#Cc1cc(F)cc([C@@H]2CCON2C(=O)[C@H]2CC[C@H](Cn3cc4ccc(C#N)cc4n3)CC2)c1 [compound 30, trans-2-((4-((S)-3-(3-cyano-5-fluorophenyl)isoxazolidine-2-carbonyl)cyclohexyl)methyl)-2H-indazole-6-carbonitrile] | 68
19 | N#Cc1cc(F)cc([C@@H]2CCON2C(=O)[C@H]2CC[C@H](Cn3ncc4c(F)cc(C#N)cc43)CC2)c1 [compound 32, trans-1-((4-((S)-3-(3-cyano-5-fluorophenyl)isoxazolidine-2-carbonyl)cyclohexyl)methyl)-4-fluoro-1H-indazole-6-carbonitrile] | 3
41 | N#Cc1cc(F)c2cn(C[C@H]3CC[C@H](C(=O)N4OCC[C@H]4c4cc(F)cc(F)c4)CC3)nc2c1 [compound 35, trans-2-((4-((S)-3-(3,5-difluorophenyl)isoxazolidine-2-carbonyl)cyclohexyl)methyl)-4-fluoro-2H-indazole-6-carbonitrile] | 48
28 | Cc1cc([C@@H]2CCON2C(=O)[C@H]2CC[C@H](Cn3cnc4cc(F)c(C#N)cc43)CC2)co1 [compound 39, trans-5-fluoro-1-((4-((S)-3-(5-methylfuran-3-yl)isoxazolidine-2-carbonyl)cyclohexyl)methyl)-1H-benzo[d]imidazole-6-carbonitrile] | 15
41 | Cc1cc([C@@H]2CCON2C(=O)[C@H]2CC[C@H](Cn3cnc4cc(C#N)c(F)cc43)CC2)co1 [compound 40, trans-6-fluoro-1-((4-((S)-3-(5-methylfuran-3-yl)isoxazolidine-2-carbonyl)cyclohexyl)methyl)-1H-benzo[d]imidazole-5-carbonitrile] | 59
39 | Cc1cc([C@@H]2CCON2C(=O)[C@H]2CC[C@H](Cn3cc4c(F)cc(C#N)cc4n3)CC2)co1 [compound 42, trans-4-fluoro-2-((4-((S)-3-(5-methylfuran-3-yl)isoxazolidine-2-carbonyl)cyclohexyl)methyl)-2H-indazole-6-carbonitrile] | 119
17 | Cc1cc([C@@H]2CCON2C(=O)[C@H]2CC[C@H](Cn3ncc4c(F)cc(C#N)cc43)CC2)co1 [compound 44, trans-4-fluoro-1-((4-((S)-3-(5-methylfuran-3-yl)isoxazolidine-2-carbonyl)cyclohexyl)methyl)-1H-indazole-6-carbonitrile] | 2
18 | N#Cc1cc(F)c2ccn(C[C@H]3CC[C@H](C(=O)N4OCC[C@H]4c4cc(F)cc(F)c4)CC3)c2c1 [compound 45, trans-1-((4-((S)-3-(3,5-difluorophenyl)isoxazolidine-2-carbonyl)cyclohexyl)methyl)-4-fluoro-1H-indole-6-carbonitrile] | 6
13 | N#Cc1cc(F)cc([C@@H]2CCON2C(=O)[C@H]2CC[C@H](Cn3ccc4c(F)cc(C#N)cc43)CC2)c1 [compound 46, trans-1-((4-((S)-3-(3-cyano-5-fluorophenyl)isoxazolidine-2-carbonyl)cyclohexyl)methyl)-4-fluoro-1H-indole-6-carbonitrile] | 6
18 | Cc1cc([C@@H]2CCON2C(=O)[C@H]2CC[C@H](Cn3ccc4c(F)cc(C#N)cc43)CC2)co1 [compound 47, trans-4-fluoro-1-((4-((S)-3-(5-methylfuran-3-yl)isoxazolidine-2-carbonyl)cyclohexyl)methyl)-1H-indole-6-carbonitrile] | 3

Reference: US20260158009A1 (GENZYME CORPORATION, priority 2023, published 2026)
